Source: PMC11085077, “Designing Antitrypanosomal and Antileishmanial BODIPY Derivatives: A Computational and In Vitro Assessment” (Molecules, 2024)
“And” between values parts separate entries of the source, which are not always exact repeats. Equal values may be shown once.

Tests used:
L. major promastigotes = assay: Antileishmanial activity, MTT-based assay; assay type: cell-based, Leishmania major; settings: for Selectivity Index (SI) L. major: SI = IC50 MRC-5/IC50 parasite; for IC50: promastigotes, 72 h incubation, MTT, error reported as σ; for antileishmanial activity (in words): classification used for docking analysis
Experimental: The in vitro antitrypanosomal and antileishmanial activity of the BODIPY derivatives were evaluated on the bloodstream form (BSF) of T. brucei and the promastigote form of L. major parasites. The toxicity of the compounds was determined after 72 h of incubation using the alamarBlue assay (for T. brucei) and the MTT assay (for L. major). The cytotoxicity of the compounds on a healthy human cell line (human lung fibroblast, MRC-5) was also determined after 72 h of incubation using the alamarBlue assay. The data were expressed as the half maximal inhibitory concentration (IC50). The selectivity index (SI) of each derivative was calculated by dividing the IC50 of MRC-5 cells into the IC50 of T. brucei or L. major. L. major (MHOM/IL/80/Friedlin) promastigotes were cultured at 28 °C, 5% CO2 in modified RPMI-1640 medium (Invitrogen, Carlsbad, CA, USA) supplemented with 10% hiFBS [49]. Parasites were maintained in culture in their […] growth phase (below 2 million parasites per mL for T. brucei and 10 million parasites per mL for L. major). The antileishmanial activity of the BODIPY derivatives was assessed using an MTT-based assay (Sigma-Aldrich, St. Louis, MO, USA). The stock solutions of the compounds were prepared in DMSO and the final DMSO percentage in each well was adjusted to be less than 1%. A total of 4 × 10^6 parasites per mL were incubated at 28 °C in 96-well plates (50 μL/well) alone or in the presence of an increasing concentration of compounds DMSO for 72 h. A total of 10 μL of MTT (5 mg/mL) were added to each well and parasites were incubated for 4 h at 28 °C. Finally, cells were lysed with 50 μL/well of 20% SDS. The plate was incubated at 37 °C for an extra hour and then, absorbance was measured at the Infinite F200 plate reader (TECAN Austria, GmbH, Grödig, Austria) at a wavelength of 540 nm. The IC50 was calculated as described above. Data are presented as the average of at least three independent measurements, all conducted in triplicate conditions.

[1] = tested on: MRC-5 cell line (human lung fibroblast); assay: Cytotoxicity, alamarBlue assay; assay type: cell-based; settings: 72 h incubation, error reported as σ
Experimental: The in vitro antitrypanosomal and antileishmanial activity of the BODIPY derivatives were evaluated on the bloodstream form (BSF) of T. brucei and the promastigote form of L. major parasites. The toxicity of the compounds was determined after 72 h of incubation using the alamarBlue assay (for T. brucei) and the MTT assay (for L. major). The cytotoxicity of the compounds on a healthy human cell line (human lung fibroblast, MRC-5) was also determined after 72 h of incubation using the alamarBlue assay. The data were expressed as the half maximal inhibitory concentration (IC50). The selectivity index (SI) of each derivative was calculated by dividing the IC50 of MRC-5 cells into the IC50 of T. brucei or L. major. MRC-5 cell line (human lung fibroblast) was grown in a monolayer at 37 °C, 5% CO2 in DMEM medium (1 g/L glucose) supplemented with 10% hiFBS, 100 U/mL penicillin, […] and 2 mM L-glutamine. Cytotoxicity was measured in MRC-5 through alamarBlue® assay (ThermoFisher Scientific). The stock solutions of the compounds were prepared in DMSO and the final DMSO percentage in each well was adjusted to be less than 1%. A total of 5 × 10^3 cells per mL were seeded in 96-well plates (100 μL/well) with 24 h of incubation time before compound addition at 37 °C, 5% CO2. Then, the compounds were added at increasing concentrations (from 0 to 100 μM) and the plates were incubated for 72 h. A total of 20 μL of resazurin solution (110 ng/mL) was added to each well and cells were incubated for 4 h. Then, cells were lysed with 50 μL/well of 3% SDS. The plate was incubated at 37 °C for an extra hour and then, the fluorescence intensity was measured at the Infinite F200 plate reader (TECAN Austria, GmbH), exciting at 550 nm and recording the emission at 590 nm. The results are expressed as the concentration of a compound that reduces cell growth by 50% versus untreated control cells (IC50). Data are presented as the average of at least three independent measurements, all conducted in triplicate conditions.

T. brucei BSF = assay: Antitrypanosomal activity, alamarBlue assay; assay type: cell-based, Trypanosoma brucei; settings: for Selectivity Index (SI) T. brucei: SI = IC50 MRC-5/IC50 parasite; for IC50: bloodstream form, 72 h incubation, alamarBlue, error reported as σ; for antitrypanosomal activity (in words): classification used for docking analysis
Experimental: The in vitro antitrypanosomal and antileishmanial activity of the BODIPY derivatives were evaluated on the bloodstream form (BSF) of T. brucei and the promastigote form of L. major parasites. The toxicity of the compounds was determined after 72 h of incubation using the alamarBlue assay (for T. brucei) and the MTT assay (for L. major). The cytotoxicity of the compounds on a healthy human cell line (human lung fibroblast, MRC-5) was also determined after 72 h of incubation using the alamarBlue assay. The data were expressed as the half maximal inhibitory concentration (IC50). The selectivity index (SI) of each derivative was calculated by dividing the IC50 of MRC-5 cells into the IC50 of T. brucei or L. major.
T. brucei (Lister 427, antigenic type MiTat 1.2, clone 221a, bloodstream forms, “single marker” S427 (S16)) were cultured at 37 °C, 5% CO2 in HMI-9 medium supplemented with 10% heat-inactivated fetal bovine serum (hiFBS, Invitrogen, Carlsbad, CA, USA), as previously described.
The antitrypanosomal activity of the BODIPY derivatives was determined by the alamarBlue® assay (ThermoFisher Scientific, Waltham, MA, USA). The stock solutions of the compounds were prepared in DMSO and the final DMSO percentage in each well was adjusted to be less than 1%. A total of 2 × 10^4 parasites per mL were incubated at 37 °C, 5% CO2 in 96-well plates (50 μL/well) alone or in the presence of an increasing concentration of compounds for 72 h. A total of 20 μL of resazurin solution (110 ng/mL) was then added to each well, and the parasites were incubated for 4 h at 37 °C. Finally, cells were lysed with 50 μL per well of SDS 3%. The plate was incubated at 37 °C for an extra hour and then, fluorescence intensity was measured with an Infinite F200 plate reader (Tecan Austria, GmbH, Grödig, Austria), exciting at 550 nm and recording the emission at 590 nm. The results are expressed as the concentration of a compound that reduces cell growth by 50% versus untreated control cells (IC50). Data are presented as the average of at least three independent measurements, all conducted in triplicate conditions.

[2] = MRC5, healthy human lung fibroblasts

SMILES | Selectivity Index (SI) L. major (L. major promastigotes) | IC50 (L. major promastigotes) [µM] | IC50 ([1]; healthy human lung fibroblasts) | Selectivity Index (SI) T. brucei (T. brucei BSF) | IC50 (T. brucei BSF) [µM] | antileishmanial activity (in words) (L. major promastigotes) | antitrypanosomal activity (in words) (T. brucei BSF) | IC50 (L. major promastigotes; Leishmania major) [µM] | IC50 [1, 2] [µM] | IC50 (T. brucei BSF; Trypanosoma brucei) [µM]
CC1=CC(C)=[N+]2C1=C(c1cc3sccc3s1)c1c(C)cc(C)n1[B-]2(F)F [Compound 1i] | 1.05 | 92.2 ± 10 | 96.8 ± 4.5 µM | 1.58 | 61.5 ± 10.9 | – | – | – | – | –
CC1=C(C=O)C(C)=[N+]2C1=C(c1c3ccccc3cc3ccccc13)c1c(C)cc(C)n1[B-]2(F)F [Compound 2c] | 6.47 | 10.3 ± 1.59 | 66.9 ± 7.65 µM | 11 and 10.84 | 6.17 ± 2.35 | present antileishmanial activity | present antitrypanosomal activity | – | – | –
CC1=CC(C)=[N+]2C1=C(c1ccc(N(C)C)c3ccccc13)c1c(C)c(-c3nc4ccccc4[nH]3)c(C)n1[B-]2(F)F [Compound 3b] | >1.18 | 84.39 ± 0.32 | > 100 µM | >3.59 | 27.9 ± 5.42 | – | – | – | – | –
CC1=CC(C)=[N+]2C1=C(c1ccc(N(C)C)c3ccccc13)c1c(C)c(C=O)c(C)n1[B-]2(F)F [Compound 2b] | 4.39 | 15.8 ± 1.31 | 69.1 ± 4.9 µM | 24 and 24.34 | 2.84 ± 0.04 | present antileishmanial activity | present antitrypanosomal activity | – | – | –
CC1=CC(C)=[N+]2C1=C(c1nccs1)c1c(C)cc(C)n1[B-]2(F)F [Compound 1g] | <0.83 | > 100 | 82.8 ± 1.2 µM | 1.49 | 55.7 ± 1.65 | – | – | – | – | –
CC1=C(C=O)C(C)=[N+]2C1=C(c1c3ccccc3cc3ccccc13)c1c(C)c(C=O)c(C)n1[B-]2(F)F [Compound 3c] | 6.91 | – | – | 1.53 | – | present antileishmanial activity | present antitrypanosomal activity | 3.13 ± 0.13 | 21.7 ± 3.46 | 14.2 ± 0.31
CC1=CC(C)=[N+]2C1=C(c1ccccc1)c1c(C)cc(C)n1[B-]2(F)F [Compound 1a] | 3.42 | 19.7 ± 3.94 | 67.2 ± 4.39 µM | 1.76 | 38.2 ± 7.29 | – | – | – | – | –
CC1=C(C=O)C(C)=[N+]2C1=C(c1ccc(N(c3ccccc3)c3ccc(C=O)cc3)cc1)c1c(C)cc(C)n1[B-]2(F)F [Compound 3d] | <0.87 | – | – | 2.28 | – | – | – | > 100 | 87.1 ± 3.28 | 38.3 ± 0.93
CC1=CC(C)=[N+]2C1=C(c1ccc(N(C)C)c3ccccc13)c1c(C)cc(C)n1[B-]2(F)F [Compound 1b] | 16 and 15.93 | 4.84 ± 1.56 | 76.8 ± 5.33 µM | 4.21 | 18.2 ± 3.63 | present antileishmanial activity | – | – | – | –
CC1=C(C=O)C(C)=[N+]2C1=C(c1cccs1)c1c(C)cc(C)n1[B-]2(F)F [Compound 2f] | 4.10 | 19.7 ± 3.21 | 80.9 ± 1.06 µM | 6.54 | 12.4 ± 4.02 | does not present antileishmanial activity | present antitrypanosomal activity | – | – | –
CC1=CC(C)=[N+]2C1=C(c1cccs1)c1c(C)cc(C)n1[B-]2(F)F [Compound 1f] | 0.90 | 64.5 ± 8.43 | 58 ± 4.76 µM | 1.57 | 36.9 ± 7.43 | – | – | – | – | –
CC1=C(c2nc3ccccc3[nH]2)C(C)=[N+]2C1=C(c1ccccc1)c1c(C)cc(C)n1[B-]2(F)F [Compound 3a] | – | > 100 | 63 µM and 62.6 µM | 11.38 | 5.5 ± 0.21 | – | present antitrypanosomal activity | – | – | –
CC1=C(C=O)C(C)=[N+]2C1=C(c1ccccc1)c1c(C)cc(C)n1[B-]2(F)F [Compound 2a] | <0.91 | > 100 | 91.33 ± 0.66 µM | 1.22 | 74.7 ± 6.93 | – | – | – | – | –
CC1=C(C=O)C(C)=[N+]2C1=C(c1ccc(N(c3ccccc3)c3ccccc3)cc1)c1c(C)cc(C)n1[B-]2(F)F [Compound 2d] | <0.81 | > 100 | 81.1 ± 3.9 µM | 3.56 | 22.7 ± 1.88 | – | – | – | – | –
CC1=CC(C)=[N+]2C1=C(c1ccc(N(c3ccccc3)c3ccccc3)cc1)c1c(C)cc(C)n1[B-]2(F)F [Compound 1d] | <0.91 | > 100 | 91.3 ± 6.31 µM | 1.87 | 48.8 ± 3.29 | – | – | – | – | –
CCn1c2ccccc2c2cc(C3=C4C(C)=CC(C)=[N+]4[B-](F)(F)n4c(C)cc(C)c43)ccc21 [Compound 1e] | <0.89 | > 100 | 88.9 ± 3.82 µM | 4.77 | 18.7 ± 2.67 | – | – | – | – | –
CCn1c2ccccc2c2cc(C3=C4C(C)=C(C=O)C(C)=[N+]4[B-](F)(F)n4c(C)cc(C)c43)ccc21 [Compound 2e] | 4.33 | 20.7 ± 1.79 | 89.7 ± 9.08 µM | 5.89 | 15.2 ± 0.86 | – | – | – | – | –
CC1=CC(C)=[N+]2C1=C(c1c3ccccc3cc3ccccc13)c1c(C)cc(C)n1[B-]2(F)F [Compound 1c] | 18 | 5.41 ± 0.43 | 82.14 ± 0.03 µM | 1.07 | 77.1 ± 2.98 | present antileishmanial activity | – | – | – | –
